# Test results reported in US9284325B2, “Spectinamides as anti-tuberculosis agents” (UNIVERSITY OF TENNESSEE RESEARCH FOUNDATION, priority 2009, dated 2016).
# Where a name gives a salt, the structure may show the parent alone.
# Assays:
# P. aeruginosa PAO1 = assay: MIC determination by microbroth dilution; type: cell-based, Pseudomonas aeruginosa; conditions: Pseudomonas aeruginosa
# [1] = type: in vitro ADME; conditions: rat, microsomes, 1.5 h, 2 µM, pH 7.4
# Description: In Vitro Microsomal Metabolic Stability: In vitro microsomal metabolic stability of the compounds was assessed using pooled rat liver microsomal preparations (Cellzdirect, Austin, Tex., United States of America). Reactions were started by adding 25 μL of microsomal protein solution (10 mg/mL) to 25 μL of test compound (20 μM) and 200 μL of NADPH regenerating solution (1.3 mM NADP+, 3.3 mM glucose-6-phosphate, 3.3 mM MgCl2 and 1 unit/mL glucose-6-phosphate dehydrogenase in pH 7.4 phosphate buffer solution). The reaction mixture was incubated at 37° C. and samples were taken at 0, 5, 10, 15, 30, 45, 60 and 90 minutes respectively. A reaction mixture containing above mentioned composition but instead using deactivated microsomes was used for control. All the samples were analyzed using LC-MS/MS assay. Disappearance of the parent compound was monitored during the incubation period. The percentage of parent compound remaining intact was estimated by comparing analyte concentrations before and after incubation.
# Following intravenous administration of 10 mg/kg in rats, 1329 follows a bi-exponential concentration/time profile with distinct distribution and elimination phases. Plasma protein binding of the compound is approximately 30%. 1329 is widely distributed with a steady state volume of distribution of 4.3 L/kg. It has a mean residence time in the body of approximately 5.3 hours.
# [2] = test system: Burkholderia cepacia ATCC 25416; assay: MIC determination by microbroth dilution; type: cell-based; conditions: ATCC25416, read-out: MIC B. cepcia
# [3] = test system: Proteus mirabilis ATCC 25933; assay: MIC determination by microbroth dilution; type: cell-based; conditions: ATCC25933
# [4] = test system: Strenotrophomonas maltophilia ATCC 13637; assay: MIC determination by microbroth dilution; type: cell-based
# E. coli K12 ΔtolC = assay: microbe, parasite or virus in culture; type: cell-based; conditions: Escherichia coli, read-out: MIC E. coli K12 ΔtolC
# [5] = test system: Strep. pneumoniae DAW27 or strain R6; assay: MIC determination by microbroth dilution; type: cell-based, Streptococcus pneumoniae; conditions: Streptococcus pneumoniae; Strep. pneumoniae DAW27 or strain R6 (for 1443-1544); read-out: MIC S. pneumoniae
# E. coli K12 = assay: MIC determination by microbroth dilution; type: cell-based, Escherichia coli; conditions: Escherichia coli, K12
compound,measurement,setting,value
"CN[C@@H]1[C@H](O)[C@H](NC)C2O[C@]3(O)C(OC2[C@H]1O)O[C@H](C)C[C@H]3NC(=O)Cc1ccccn1 (stereo partly drawn) [Compound 1329, 3′-Dihydro-3′-deoxy-4(R)-(pyridin-2yl)acetylamino spectinomycin Dihydrochloride]",MIC,P. aeruginosa PAO1,100 µg/mL
same,parent drug remaining intact,[1],95%
same,MIC,[2],> 200 µg/mL
same,MIC,[3],> 200 µg/mL
same,MIC,[4],200 µg/mL
same,MIC,E. coli K12 ΔtolC,50 µg/mL
same,MIC,[5],6.25 µg/mL
same,MIC,E. coli K12,200 µg/mL
